# Reference: publication PMC12128972, “TYRA-300, an FGFR3-selective inhibitor, promotes bone growth in two FGFR3-driven models of chondrodysplasia” (JCI Insight, 2025)
# Values joined by “and” are separate entries in the source; they are usually repeats but may differ in a detail not shown here. Equal entries are not always repeated.
# What was measured:
# [1] = system: femurs of Fgfr3^Y367C/+ mice; test: Fgfr3Y367C/+ mice: microCT of femurs (SOC bone volume, BMD, BV/TV); assay type: in vivo, mouse; details: 1.2 mg/kg s.c. daily for 15 days
# Experimental: Finally, measurements of trabecular bone quality were performed using μCT imaging of the femurs (Supplemental Figure 2).
# Femurs were placed in 70% ethanol at 4°C and measured on the Skyscan-1272 (Bruker) with the following parameters: 60 kV, 166 μA, 0.25 mm aluminum filter. Within the femurs, the trabecular parameters were obtained at 5 μm voxel resolution in a ROI (normalized to 7% of the femur length in size) beginning 255 μm proximal to the distal growth plate for controls, 25 μm for Fgfr3^Y367C/+ + vehicle, and 35 μm for Fgfr3^Y367C/+ + TYRA-300. The BMD and BV/TV of the metaphysis were measured using on a set of sections located within the secondary spongiosa under the growth plate. The measured volume was chosen to be proportional to the femur length (typically 630 μm for control animals and 310 μm for Fgfr3^Y367C/+ + vehicle and 415 μm for Fgfr3^Y367C/+ + TYRA-300.) Scan reconstruction was done using NRecon (v 1.7.4.6). Scan orientation was done using DataViewer (v 1.7.0.1). 3D Analysis for trabecular bone was performed using CT Analyzer (v 1.23.0.2).
# [2] = system: Fgfr3^N534K/+ mouse model of HCH; test: Fgfr3N534K/+ mice: long bone length; assay type: in vivo; details: 2.4 mg/kg dose, data not shown
# [3] = system: lumbar vertebrae of Fgfr3^N534K/+ mice; test: Fgfr3N534K/+ mice: histology of lumbar vertebrae and intervertebral disc; assay type: in vivo, mouse; details: 1.8 mg/kg daily for 21 days
# From the text: We also analyzed the lumbar vertebrae and intervertebral disc (Figure 5E).
# (§1) The right femur and lumbar vertebrae segment L4–L6 were collected and fixed in 4% paraformaldehyde, decalcified with ethylenediaminetetraacetic acid (EDTA) 0.5 M (pH 8) for 2 or 3 weeks, and embedded in paraffin. Serial paraffin sections of 5 μm were stained with hematoxylin, eosin, and Safranin O. For immunohistochemistry, sections were labeled with antibodies against collagen type X (BIOCYC ref. [1]-CO097-05-RUO, 1:100 dilution), collagen type I (Novotec, 20151, dilution 1:1,000), pERK (Cell Signaling, 4370S, dilution 1:1,000), and PCNA (Abcam, GR3195972-6, 1:500 dilution) using the Dako Envision Kit. Images were captured with an Olympus PD70-IX2-UCB microscope and CellSens software (Olympus Life Science Solutions). Cells were counted using ImageJ software (NIH, Laboratory for Optical Computational Instrumentation).
# [4] = system: skull and foramen magnum of Fgfr3^Y367C/+ mice; test: Fgfr3Y367C/+ mice: skull and foramen magnum (calipers, microCT), grade of synchondroses; assay type: in vivo, mouse; set-up: source data of Figure 3I (sheet "3I"): grade of synchondroses: scale not given here
# Experimental: Another hallmark of ACH that is observed in Fgfr3^Y367C/+ mice is change in the size and shape of the skull and foramen magnum ([28]). The size of the foramen magnum is of particular clinical importance, as its reduced size can cause compression of the brain stem and spinal cord, resulting in significant morbidity and mortality in infants with ACH ([37]–[40]). To study the effects of TYRA-300 on the skull and foramen magnum in Fgfr3^Y367C/+ mice, macroscopic analyses were performed and μCT images were taken of the mice at the end of study. Changes in the shape of the skull are visible on μCT images in TYRA-300–treated Fgfr3^Y367C/+ mice compared with vehicle-treated Fgfr3^Y367C/+ mice (Figure 3A). […] The skull was further analyzed using the μCT images, which enabled measurement of the anteroposterior length and nasio-occipital length of the skull.
# The μCT images also indicate that treatment with TYRA-300 modified the synchondroses at the base of the skull (Figure 3, I and J). […] Overall, the improvement in the size and shape of the foramen magnum with TYRA-300 has important clinical implications for foramen magnum stenosis.
# (§2) Whole body x-ray images were taken of all animals by Faxitron specimen radiography MX-20 (Faxitron X-Ray LLC) following terminal sacrifice. The length of the L4–L6 lumbar vertebra segment was also measured for each animal using calipers, and the height of the L5 vertebral body was measured from Alcian blue/Sirius red images. Long bones and the skull were then excised, and their dimensions were measured using calipers (VWRi819-0013, VWR International). The transverse and sagittal diameters of the foramen magnum were also measured using calipers for the Fgfr3^Y367/+ model, and measured using the μCT images for the Fgfr3^N534K/+ model.
# (§3) The heads of all mice were isolated, and skin was stripped before being placed in 70% ethanol at 4°C. μCT images of the skulls were measured on the Skyscan-1272 (Bruker) with the following parameters: 10 μm resolution, 680 ms exposure, 70 kV, 142 μA, and 0.350° rotation step. The μCT data were analyzed using DataViewer and CTAn software (version 1.20.8) to perform postprocessing techniques in 3D. The nasio-occipital length and anteroposterior length of the skull were measured using 2D μCT images.
# [5] = system: FGFR3 N540K; set-up: method as in PMID 39258897; details: cited from earlier work
# [6] = system: foramen magnum of Fgfr3^N534K/+ mice; test: Fgfr3N534K/+ mice: microCT of foramen magnum, grade of synchondroses; assay type: in vivo, mouse; set-up: key to grade of synchondroses after treatment: I: border of synchondroses were completely separated; II: clear separation of synchondroses with some areas suspicious for bone bridging; III: synchondroses showing bony bridge between 2 borders; IV: completely fused synchondroses with remnants of margin (cartilage); V: completely fused synchondroses; source data of Figure 5C (sheet "5C"): grade of synchondroses: scale not given here
# Experimental: Finally, to confirm the effects of TYRA-300 on the axial skeleton in Fgfr3^N534K/+ mice, μCT imaging of the foramen magnum was performed at the end of treatment.
# as §2, §3
# [7] = system: growth plate chondrocytes of Fgfr3^Y367C/+ mice; test: Fgfr3Y367C/+ mice: histology and immunohistochemistry of distal femur growth plate (H&E, collagen type X, PCNA, HZC count); assay type: in vivo, mouse
# Experimental: To understand the effects of TYRA-300 treatment on the growth plate cartilage and chondrocytes and the mechanism through which TYRA-300 increases bone growth, histological analysis of the femurs of Fgfr3^Y367C/+ mice was performed. […] Treatment also facilitated angiogenesis, deposition of bone matrix, and resorption of the cartilage. In addition, the overall structure of the growth plate was more organized after treatment with TYRA-300. […] The organization of the hypertrophic zone, with HZCs organized in columns, appeared similar in TYRA-300–treated Fgfr3^Y367C/+ mice and Fgfr3^+/+ mice. Within the hypertrophic zone of TYRA-300–treated mice, the HZCs were larger than in vehicle-treated mice.
# as §1
# [8] = 1.2 mg/kg s.c. daily for 15 days
# [9] = 1.2 mg/kg s.c. daily for 15 days, macroscopic
# [10] = 1.2 mg/kg s.c. daily for 15 days, microCT
# [11] = 1.8 mg/kg daily for 21 days, microCT
structure (smiles),measurement,setting,value
C[C@@H](Oc1ccc2[nH]nc(-c3ccc(N4CC5(C4)CN(S(C)(=O)=O)C5)nc3)c2c1)c1c(Cl)cncc1Cl [TYRA-300],bone volume of the SOC (microCT) vs vehicle,[1],significant increase
same,increase in bone mineral density (BMD) vs vehicle,[1]; femoral metaphyses,21.4%
same,increase in bone volume-to-tissue volume ratio (BV/TV) vs vehicle,[1]; femoral metaphyses,73.3%
same,phenotypic observations in preliminary dose exploration,[2],phenotypic signs consistent with the Fgfr3^–/– model were observed
same,shape of the intervertebral disc,[3],slightly modified the shape of the intervertebral disc
same,increase in sagittal diameter of the foramen magnum vs vehicle,[4]; [8],9.28%
same,increase in transverse diameter of the foramen magnum vs vehicle,[4]; [8],13.05%
same,grade of synchondroses (intraoccipital synchondrosis anterior),"[4]; 1.2 mg/kg s.c. daily for 15 days, all treated mice",II or III
same,increase in skull length vs vehicle,[4]; [9],10.08%
same,increase in skull width vs vehicle,[4]; [9],3.74%
same,increase in anteroposterior length of the skull vs vehicle,[4]; [10],8.92%
same,increase in area of the foramen magnum vs vehicle,[4]; [10],25.17%
same,increase in nasio-occipital length of the skull vs vehicle,[4]; [10],7.87%
same,"source data of Figure 3I (sheet ""3I""): grade of synchondroses","[4]; Fgfr3Y367C/+ mice + TYRA-300, individual animal values",3 and 2.5
same,inhibition of FGFR3 N540K relative to wild-type and G380R mutant proteins,[5],lower inhibition
same,change in transverse diameter of the foramen magnum,"[6]; 1.8 mg/kg daily for 21 days, data not shown",not a statistically significant change
same,increase in area of the foramen magnum vs vehicle,[6]; [11],7.51%
same,increase in sagittal diameter of the foramen magnum vs vehicle,[6]; [11],6.35%
same,grade of synchondroses after treatment,"[6]; 1.8 mg/kg daily for 21 days, most mice, vehicle grade V",IV
same,"source data of Figure 5C (sheet ""5C""): grade of synchondroses","[6]; Fgfr3N534K/+ mice + TYRA-300, individual animal values",5 and 4
same,expression of PCNA in distal femoral growth plate,[7]; [8],a more well-defined positive zone within the growth plate
same,number of HZCs within the ROI vs vehicle,"[7]; 1.2 mg/kg s.c. daily for 15 days, distal femur",significant decrease
same,type X collagen staining in the HZCs,[7]; present study,partial restoration
